Laboratory results: patent publication US20240216344A1, “THIAZOLIDINEDIONE ANALOGS FOR THE TREATMENT OF NAFLD AND METABOLIC DISEASES” (Cirius Therapeutics, Inc., priority 2019, published 2024)
Where two headings read alike, the source gives them in different places.

Columns and labels:
patients with NASH [1] = conditions: cited from earlier work
patients with NASH [2] = conditions: cited from earlier work; remark: listed apart in the source
patients with NASH [3] = assay: Meta-analysis of 17 NASH clinical trials: change from baseline in LFTs and biomarkers by study arm, composite outcome; type: in vivo, human; conditions: 17 NASH clinical trials
Procedure: Meta-regressions of NASH clinical trials were performed to examine associations between biomarker and histological changes within treatment groups, and to additionally examine associations between treatment effects on biomarkers and on liver histology. Trials that met the following criteria were included: • Randomized controlled clinical trial • Paired biopsies performed at baseline and follow-up, scored using the NASH CRN system.
• Published results at baseline, follow-up, or changes from baseline for any the following liver injury markers or biomarkers: alanine aminotransferase (ALT), aspartate aminotransferase (AST), alkaline phosphatase, hemoglobin A1c (HbA1c), gamma-glutamyltransferase (GGT), insulin, cytokeratin-18 (CK-18), or Enhanced Liver Fibrosis (ELF) score. Variables selected were based on variables whose change was commonly reported in multiple studies. • Changes in histological scores for ballooning, inflammation, steatosis, and fibrosis, or the pre-determined endpoints of NASH resolution without worsening fibrosis or improvement in fibrosis with no worsening of NASH.
All results from a search of PubMed for the keywords (“nonalcoholic steatohepatitis” or “non-alcoholic steatohepatitis”) and (“clinical trial” or “randomized”) and filtered for “Clinical Trial” were reviewed. EudraCT and ClinicalTrials.gov were searched for the keyword “nonalcoholic steatohepatitis” with results further filtered for phase 2 or 3, interventional, terminated or completed trials. These three sources returned 265 (PubMed), 153 (ClinicalTrials.gov), and 56 (EudraCT) results, which were each individually reviewed for inclusion in the analysis. Data extracted by one analyst from each source that included means and SDs at baseline, end of study, and changes from baseline to end of study for continuous variables were verified and corrected by a second analyst. Where SDs were not available, any provided estimate of variation was used to derive the SD where possible; a plot-digitizer program was used where data were presented in figures only. Data for dichotomous endpoints were extracted as the number of subjects with the event and corresponding sample size.
Random effects weighted least squares meta-regressions with inverse variance weighting were used to examine the association of changes in ALT, AST, CK-18, HbA1c, fasting insulin levels, ELF, alkaline phosphatase and GGT with biopsy outcomes. CK-18[M30] was measured in all studies except EMMINENCE where CK-18[M651 was reported. These associations were assessed at an individual cohort level (within treatment group), as well as based on the treatment effect. Percent change from baseline in liver injury makers and biomarkers was used as the predictor when examining the associations in the individual cohorts with outcomes while the treatment ratio, the ratio of active to placebo with respect to the relative changes from baseline, was used as the predictor when assessing the association with the treatment effect on outcomes. Standardized mean changes (mean/SD) or standardized mean treatment differences (mean difference/pooled SD) were used for continuous outcomes and Freeman-Tukey double arcsine transformed proportions or log odds ratios were used for dichotomous outcomes. Meta-regression results were computed using the metafor package available in R. P-values <0.05 were considered statistically significant.
From the meta-regression results, ranks for the association with responses and treatment effects for each histologic outcome (changes in ballooning, inflammation, steatosis, and fibrosis; NASH resolution without worsening of fibrosis, and fibrosis improvement without worsening of NAS) were assigned across seven biomarkers (AST, GGT, HbA1c, insulin, CK-18, ELF, and alkaline phosphatase) for both the slope and the mediator p-value (ranks 1-7, with 7 assigned to the biomarker with the greatest slope or lowest p-value). An average rank across all outcomes was then assigned to each biomarker. […]

[4] = MADRIGAL trial, Resmetirom 80 mg
[5] = MADRIGAL, 80 mg, follow-up 9 months
[6] = LEUSCHNER trial, UDCA 23-28 mg/kg/day
[7] = LEUSCHNER, 23-28 mg/kg/day, follow-up 18 months
[8] = ENCORE-HF trial, Emricasan 5 mg
[9] = ENCORE-HF trial, Emricasan 50 mg
[10] = GOLDEN trial, Elafibranor 120 mg
[11] = GOLDEN, 80 mg, follow-up 12 months
[12] = GOLDEN, 120 mg, follow-up 12 months
[13] = PIVENS, Vitamin E arm, follow-up 22 months
[14] = GEORGESCU trial, Valsartan 80 mg
[15] = GEORGESCU, 80 mg, follow-up 20 months
[16] = CENTAUR, 150 mg, follow-up 12 months
[17] = ARREST, 400 mg, follow-up 12 months
[18] = ARREST, 600 mg, follow-up 12 months
[19] = GEORGESCU trial, Telmisartan 20 mg
[20] = GEORGESCU, 20 mg, follow-up 20 months

CC(C)c1cc(Oc2c(Cl)cc(-n3nc(C#N)c(=O)[nH]c3=O)cc2Cl)n[nH]c1=O [Resmetirom]
Fibrosis Improvement (patients with NASH [1]; [4]): 21/73 | NASH Resolution (patients with NASH [1]; [4]): 18/73 | % Change from Baseline ALT (patients with NASH [2]; [5]): −30.80% | % Change from Baseline AST (patients with NASH [2]; [5]): −21.08% | % Change from Baseline Alk Phos (patients with NASH [2]; [5]): 7.85% | % Change from Baseline CK-18 (patients with NASH [2]; [5]): −35.15% | % Change from Baseline ELF (patients with NASH [2]; [5]): −7.17% | % Change from Baseline GGT (patients with NASH [2]; [5]): −18.76% | % Change from Baseline HbA1c (patients with NASH [2]; [5]): 0.63%

C[C@H](CCC(=O)O)[C@H]1CC[C@H]2[C@@H]3[C@@H](O)C[C@@H]4C[C@H](O)CC[C@]4(C)[C@H]3CC[C@]12C [UDCA]
Change from Baseline, mean: Ballooning (patients with NASH [1]; [6]): −0.16 | Change from Baseline, mean: Inflammation (patients with NASH [1]; [6]): −0.51 | Change from Baseline, mean: Steatosis (patients with NASH [1]; [6]): −0.55 | % Change from Baseline ALT (patients with NASH [2]; [7]): −40.55% | % Change from Baseline AST (patients with NASH [2]; [7]): −27.95% | % Change from Baseline Alk Phos (patients with NASH [2]; [7]): −6.376% | % Change from Baseline GGT (patients with NASH [2]; [7]): −59.94%

C[C@H](NC(=O)C(=O)Nc1ccccc1C(C)(C)C)C(=O)N[C@@H](CC(=O)O)C(=O)COc1c(F)c(F)cc(F)c1F [Emricasan]
Change from Baseline, mean: Ballooning (patients with NASH [1]; [8]): 0.04 | Change from Baseline, mean: Fibrosis (patients with NASH [1]; [8]): 0.41 | Change from Baseline, mean: Inflammation (patients with NASH [1]; [8]): −0.11 | Change from Baseline, mean: Steatosis (patients with NASH [1]; [8]): −0.20 | Fibrosis Improvement (patients with NASH [1]; [8]): 12/107 | NASH Resolution (patients with NASH [1]; [8]): 4/107 | Change from Baseline, mean: Ballooning (patients with NASH [1]; [9]): 0.13 | Change from Baseline, mean: Fibrosis (patients with NASH [1]; [9]): 0.36 | Change from Baseline, mean: Inflammation (patients with NASH [1]; [9]): 0.09 | Change from Baseline, mean: Steatosis (patients with NASH [1]; [9]): −0.27 | Fibrosis Improvement (patients with NASH [1]; [9]): 13/106 | NASH Resolution (patients with NASH [1]; [9]): 7/106 | % Change from Baseline ALT (patients with NASH [2]; ENCORE-HF, 5 mg): −35.28% | % Change from Baseline AST (patients with NASH [2]; ENCORE-HF, 5 mg): −18.47% | % Change from Baseline CK-18 (patients with NASH [2]; ENCORE-HF, 5 mg): −36.86% | % Change from Baseline ALT (patients with NASH [2]; ENCORE-HF, 50 mg): −45.17% | % Change from Baseline AST (patients with NASH [2]; ENCORE-HF, 50 mg): −19.83% | % Change from Baseline CK-18 (patients with NASH [2]; ENCORE-HF, 50 mg): −45.07%

CSc1ccc(C(=O)/C=C/c2cc(C)c(OC(C)(C)C(=O)O)c(C)c2)cc1 [Elafibranor]
NASH Resolution (patients with NASH [1]; GOLDEN trial, Elafibranor 80 mg): 12/93 | Change from Baseline, mean: Ballooning (patients with NASH [1]; [10]): −0.07 | Change from Baseline, mean: Fibrosis (patients with NASH [1]; [10]): −0.07 | Change from Baseline, mean: Inflammation (patients with NASH [1]; [10]): −0.32 | Change from Baseline, mean: Steatosis (patients with NASH [1]; [10]): 0.02 | NASH Resolution (patients with NASH [1]; [10]): 17/89 | % Change from Baseline ALT (patients with NASH [2]; [11]): −9.72% | % Change from Baseline AST (patients with NASH [2]; [11]): −16.87% | % Change from Baseline Alk Phos (patients with NASH [2]; [11]): −25.87% | % Change from Baseline GGT (patients with NASH [2]; [11]): −34.54% | % Change from Baseline ALT (patients with NASH [2]; [12]): −19.75% | % Change from Baseline AST (patients with NASH [2]; [12]): −30.22% | % Change from Baseline Alk Phos (patients with NASH [2]; [12]): −26.41% | % Change from Baseline GGT (patients with NASH [2]; [12]): −41.68%

Vitamin E
Change from Baseline, mean: Ballooning (patients with NASH [1]; PIVENS trial, Vitamin E): −0.30 | Change from Baseline, mean: Fibrosis (patients with NASH [1]; PIVENS trial, Vitamin E): −0.30 | Change from Baseline, mean: Inflammation (patients with NASH [1]; PIVENS trial, Vitamin E): −0.60 | Change from Baseline, mean: Steatosis (patients with NASH [1]; PIVENS trial, Vitamin E): −0.70 | NASH Resolution (patients with NASH [1]; PIVENS trial, Vitamin E): 30/84 | % Change from Baseline ALT (patients with NASH [2]; [13]): −43.02% | % Change from Baseline AST (patients with NASH [2]; [13]): −36.10% | % Change from Baseline Alk Phos (patients with NASH [2]; [13]): −12.08% | % Change from Baseline GGT (patients with NASH [2]; [13]): −25.00% | % Change from Baseline Insulin (patients with NASH [2]; [13]): 2.73%

CCCCC(=O)N(Cc1ccc(-c2ccccc2-c2nnn[nH]2)cc1)[C@H](C(=O)O)C(C)C [Valsartan]
Change from Baseline, mean: Ballooning (patients with NASH [1]; [14]): −0.11 | Change from Baseline, mean: Fibrosis (patients with NASH [1]; [14]): −0.31 | Change from Baseline, mean: Inflammation (patients with NASH [1]; [14]): 0.08 | Change from Baseline, mean: Steatosis (patients with NASH [1]; [14]): −0.34 | % Change from Baseline ALT (patients with NASH [2]; [15]): −23.22% | % Change from Baseline AST (patients with NASH [2]; [15]): −18.82% | % Change from Baseline GGT (patients with NASH [2]; [15]): −20.60%

CCCCOCCOc1ccc(-c2ccc3c(c2)/C=C(/C(=O)Nc2ccc([S@@+]([O-])Cc4cncn4CCC)cc2)CCCN3CC(C)C)cc1 [Cenicriviroc]
Fibrosis Improvement (patients with NASH [1]; CENTAUR trial, Cenicriviroc 150 mg): 29/145 | % Change from Baseline ALT (patients with NASH [2]; [16]): 11.23% | % Change from Baseline AST (patients with NASH [2]; [16]): 11.67% | % Change from Baseline Alk Phos (patients with NASH [2]; [16]): 1.24% | % Change from Baseline CK-18 (patients with NASH [2]; [16]): −12.34% | % Change from Baseline GGT (patients with NASH [2]; [16]): 2.68% | % Change from Baseline HbA1c (patients with NASH [2]; [16]): −0.75% | % Change from Baseline Insulin (patients with NASH [2]; [16]): 2.14%

CC(C)c1cc(Oc2c(Cl)cc(-n3nc(C#N)c(=O)[nH]c3=O)cc2Cl)n[nH]c1=O [resmetiron, reference compound]
treatment effect on the surrogate endpoint (weighted average of changes in AST, CK-18, HbA1c) (patients with NASH [3]): largest treatment effects

CCCCCCCCCCCCCCCCCCCC(=O)N[C@H]1CC[C@@]2(C)[C@@H](C1)C[C@@H](O)[C@@H]1[C@@H]2C[C@H](O)[C@]2(C)[C@@H]([C@H](C)CCC(=O)O)CC[C@@H]12 [Aramachol, reference compound]
Fibrosis Improvement (patients with NASH [1]; ARREST trial, Aramchol 400 mg): 17/80 | NASH Resolution (patients with NASH [1]; ARREST trial, Aramchol 400 mg): 6/80 | Fibrosis Improvement (patients with NASH [1]; ARREST trial, Aramchol 600 mg): 23/78 | NASH Resolution (patients with NASH [1]; ARREST trial, Aramchol 600 mg): 13/78 | % Change from Baseline ALT (patients with NASH [2]; [17]): −18.06% | % Change from Baseline HbA1c (patients with NASH [2]; [17]): −0.62% | % Change from Baseline ALT (patients with NASH [2]; [18]): −32.02% | % Change from Baseline HbA1c (patients with NASH [2]; [18]): −1.79% | treatment effect on the surrogate endpoint (weighted average of changes in AST, CK-18, HbA1c) (patients with NASH [3]): largest treatment effects

CCCc1nc2c(C)cc(-c3nc4ccccc4n3C)cc2n1Cc1ccc(-c2ccccc2C(=O)O)cc1 [Telmisartan]
Change from Baseline, mean: Ballooning (patients with NASH [1]; [19]): −0.58 | Change from Baseline, mean: Fibrosis (patients with NASH [1]; [19]): −0.75 | Change from Baseline, mean: Inflammation (patients with NASH [1]; [19]): −0.36 | Change from Baseline, mean: Steatosis (patients with NASH [1]; [19]): −0.50 | % Change from Baseline ALT (patients with NASH [2]; [20]): −30.29% | % Change from Baseline AST (patients with NASH [2]; [20]): −34.64% | % Change from Baseline GGT (patients with NASH [2]; [20]): −2.83%
